US8398970B2, “Method of preventing early Lawsonia intracellularis infections” (priority 2007, dated 2013)

Test system: Lawsonia intracellularis
Assay: Embedded early vaccination field study: performance of weaned piglets during the rearing period
Format: in vivo
Description: The study was carried out in a unit in North Rhine Westphalia with 160 sows and 600 breeding stalls, producing to a weekly cycle with four weeks' suckling. The piglets are sold on for fattening once they reach about 30 kg.
The unit was chosen because clinical ileitis occurred in the rearing quarters of the unit if the animals were not treated with an antibiotic effective against Lawsonia intracellularis for 10 days from the weaning time onwards. More detailed diagnosis found. Lawsonia intracellularis in the faeces of the clinically sick animals and other diarrhea-causing pathogens were ruled out.
Within the course of the study all the piglets were weighed on removal from the sows and individually marked with progressive numbering using an ear tag. A blood sample was taken from each of 15 piglets in each group of weaned animals on the day of removal from the sow and this blood was tested for antibodies to Lawsonia intracellularis. The weaned piglets were put into pens in groups of 10 animals. Four days after weaning every second group of weaned animals was vaccinated with Enterisol® Ileitis (Boehringer Ingelheim) in accordance with the manufacturer's instructions through the drinking water in their trough. The other groups remained unvaccinated. After 3 days without antibiotics following the ileitis vaccination, the piglets of all the weaned groups were subjected to tylosin therapy (10 mg/kg KGW Tylae G 25, Elanco Animal Health) for 18 days starting from the 8th day after weaning. The unvaccinated weaned piglets were also treated with tylosin in the same dosage for 18 days starting from the 8th day after weaning.
On the day of release from their pens, all the piglets were again weighed individually. In addition, blood samples were taken from 10 piglets in each market batch, and the samples were examined for antibodies to Lawsonia intracellularis using ELISA. All the study groups were subjected to identical care and feed conditions. The study encompasses a total of 891 piglets. The absolute weight gain and daily increase in growth were calculated from the weights on removal from the sows and release from the pens. The rearing period was ascertained using the weaning date and date of sale.

## CC[C@H]1OC(=O)C[C@@H](O)[C@H](C)[C@@H](O[C@@H]2O[C@H](C)[C@@H](O[C@H]3C[C@@](C)(O)[C@@H](O)[C@H](C)O3)[C@H](N(C)C)[C@H]2O)[C@@H](CC=O)C[C@@H](C)C(=O)/C=C/C(C)=C/[C@@H]1CO[C@@H]1O[C@H](C)[C@@H](O)[C@@H](OC)[C@H]1OC [tylosin]
average, weaning date to date of sale
  rearing period: 52.9 days
Difference in maximum rearing period
  breeding pens blocked longer than pens containing vaccinated groups: 17 days
During rearing period
  average gain per day: 404 g per day
Maximum rearing period
  Max. growth period: 96 days
Mean daily weight gain during rearing period
  daily increase: 404 g
Mean weight at end of rearing period
  sale weight: 29.26 kg
Shortest time after which a piglet was sent on for fattening
  Min. growth period: 31 days
